The results in this text go back to BindingDB's records for doi:10.1016/j.ejmech.2019.02.016 (National Health Research Institutes, 2019).

Broadly, the EC50 is the concentration at which the effect is half-maximal.

SMILES strings stand for the structures.

This test in a line: Inhibition of NS5A in HCV genotype 1b infected in human HuH7 replicon cells assessed as reduction in subgenomic viral RNA replication treated for 2 days followed by compound washout and subsequent compound dosing measured after 1 day by SEAP reporter gene assay.

Turning to `O=C(N[C@H](C(=O)N1CCC[C@H]1c1ncc(-c2ccc(-c3ccc(-c4cnc([C@@H]5CCCN5C(=O)[C@H](NC(=O)C5CCCC5)c5ccccc5)s4)cc3)cc2)s1)c1ccccc1)C1CCCC1`, the EC50 came to 1.1 nM. Under `C[C@@H](NC(=O)C1CC1)C(=O)N1CCC[C@H]1c1ncc(-c2ccc(-c3ccc(-c4cnc([C@@H]5CCCN5C(=O)[C@@H](C)NC(=O)C5CC5)s4)cc3)cc2)s1` stands 115 nM; under `O=C(N[C@H](C(=O)N1CCC[C@H]1c1ncc(-c2ccc(-c3ccc(-c4cnc([C@@H]5CCCN5C(=O)[C@H](NC(=O)C5CCC5)c5ccccc5)s4)cc3)cc2)s1)c1ccccc1)C1CCC1`, 0.45 nM; under `O=C(CCn1cccc1)N[C@@H](C(=O)N1CCC[C@H]1c1ncc(-c2ccc(-c3ccc(-c4cnc([C@@H]5CCCN5C(=O)[C@H](NC(=O)CCn5cccc5)c5ccccc5)s4)cc3)cc2)s1)c1ccccc1`, 0.017 nM. The same measure for `O=C(N[C@H](C(=O)N1CCC[C@H]1c1ncc(-c2ccc(-c3ccc(-c4cnc([C@@H]5CCCN5C(=O)[C@H](NC(=O)c5cccs5)c5ccccc5)s4)cc3)cc2)s1)c1ccccc1)c1cccs1`: 110 nM. The same measure for `O=C(Cc1ccccc1)N[C@H](C(=O)N1CCC[C@H]1c1ncc(-c2ccc(-c3ccc(-c4cnc([C@@H]5CCCN5C(=O)[C@H](NC(=O)Cc5ccccc5)c5ccccc5)s4)cc3)cc2)s1)c1ccccc1`: 2.9 nM; for `CCCC[C@H](NC(=O)OC)C(=O)N1CCC[C@H]1c1ncc(-c2ccc(-c3ccc(-c4cnc([C@@H]5CCCN5C(=O)[C@H](CCCC)NC(=O)OC)s4)cc3)cc2)s1`: 237 nM. Regarding `CS(=O)(=O)N[C@@H](C(=O)N1CCC[C@H]1c1ncc(-c2ccc(-c3ccc(-c4cnc([C@@H]5CCCN5C(=O)[C@H](NS(C)(=O)=O)c5ccccc5)s4)cc3)cc2)s1)c1ccccc1`, the EC50 was 3.4 nM. Under `CCCCC(=O)N[C@@H](C(=O)N1CCC[C@H]1c1ncc(-c2ccc(-c3ccc(-c4cnc([C@@H]5CCCN5C(=O)[C@H](NC(=O)CCCC)c5ccccc5)s4)cc3)cc2)s1)c1ccccc1` stands 0.031 nM; under `O=C(N[C@H](C(=O)N1CCC[C@H]1c1ncc(-c2ccc(-c3ccc(-c4cnc([C@@H]5CCCN5C(=O)[C@H](NC(=O)c5ccccc5)c5ccccc5)s4)cc3)cc2)s1)c1ccccc1)c1ccccc1`, 272 nM.

As to `CCC(=O)N[C@@H](C(=O)N1CCC[C@H]1c1ncc(-c2ccc(-c3ccc(-c4cnc([C@@H]5CCCN5C(=O)[C@H](NC(=O)CC)c5ccccc5)s4)cc3)cc2)s1)c1ccccc1`, the EC50 was 0.016 nM. The same measure for `O=C(Cc1ccccc1)N[C@@H](C(=O)N1CCC[C@H]1c1ncc(-c2ccc(-c3ccc(-c4cnc([C@@H]5CCCN5C(=O)[C@H](NC(=O)Cc5ccccc5)c5ccccc5)s4)cc3)cc2)s1)c1ccccc1`: 0.13 nM; for `CCC(=O)N[C@H](C(=O)N1CCC[C@H]1c1ncc(-c2ccc(-c3ccc(-c4cnc([C@@H]5CCCN5C(=O)[C@H](NC(=O)CC)c5ccccc5)s4)cc3)cc2)s1)c1ccccc1`: 0.85 nM. The same measure for `O=C(N[C@H](C(=O)N1CCC[C@H]1c1ncc(-c2ccc(-c3ccc(-c4cnc([C@@H]5CCCN5C(=O)[C@H](NC(=O)c5ccco5)c5ccccc5)s4)cc3)cc2)s1)c1ccccc1)c1ccco1`: 1.7 nM; for `CC(C)C(=O)N[C@@H](C(=O)N1CCC[C@H]1c1ncc(-c2ccc(-c3ccc(-c4cnc([C@@H]5CCCN5C(=O)[C@H](NC(=O)C(C)C)c5ccccc5)s4)cc3)cc2)s1)c1ccccc1`: 0.009 nM. Under `O=C(N[C@H](C(=O)N1CCC[C@H]1c1ncc(-c2ccc(-c3ccc(-c4cnc([C@@H]5CCCN5C(=O)[C@H](NC(=O)N5CCCCC5)c5ccccc5)s4)cc3)cc2)s1)c1ccccc1)N1CCCCC1` stands 1.9 nM; under `O=C(N[C@@H](C(=O)N1CCC[C@H]1c1ncc(-c2ccc(-c3ccc(-c4cnc([C@@H]5CCCN5C(=O)[C@H](NC(=O)c5ccsc5)c5ccccc5)s4)cc3)cc2)s1)c1ccccc1)c1ccsc1`, 0.53 nM. As to `CC[C@@H](NC(=O)C1CC1)C(=O)N1CCC[C@H]1c1ncc(-c2ccc(-c3ccc(-c4cnc([C@@H]5CCCN5C(=O)[C@@H](CC)NC(=O)C5CC5)s4)cc3)cc2)s1`, the EC50 is 433 nM.
